From ChEMBL document CHEMBL6182910, “Design, Synthesis, and Biological Evaluation of 4-(Difluoromethyl)-1H-imidazole-5-carboxylic Acids/4-(3-Cyanophenoxy)pyrimidine-5-carboxylic Acids as P2Y1 Receptor Antagonists for Ischemic Stroke Treatment” (J Med Chem, 2025)
pIC50: −log10 of the molar value. Active and inactive are the calls of the source. The calls are words filed in the database; no cut-off is given here.

Legend:
Plasma = experiment: Anti-platelet aggregation in platelet-rich plasma of male Japanese white rabbit assessed as inhibition of ADP-induced platelet aggregation preincubated for 15 mins followed by ADP addition measured up to 10 mins by Born's turbidometric method; type: functional, cell-free; settings: Oryctolagus cuniculus
HT-22 = experiment: Neuroprotective activity against H2O2-induced oxidative stress in mouse HT-22 cells assessed as cell viability at 10 uM preincubated for 2 hrs followed by H2O2 addition measured after 24 hrs by MTT assay (reference value: 55 +/- 4.6 %); type: functional; settings: for viability at 10 µM: time 26 hrs, read-out: Activity; for Activity: time 26.0 hrs

SMILES | pIC50 (Plasma) | viability at 10 µM (HT-22) [%] | Activity (HT-22)
N#Cc1cccc(-c2ncc(C(=O)O)c(Oc3ccn[nH]3)n2)c1 | < 5.00 |  | inactive
N#Cc1ccc(COn2c(-c3cccc(C#N)c3)nc(-c3cccnc3)c2C(=O)O)cc1 | < 5.00 |  | inactive
N#Cc1ccc(Nc2nc(-c3ccc(C#N)cc3)ncc2C(=O)O)cc1 | 5.00 | 91.1 | 
N#Cc1cccc(-c2ncc(C(=O)O)c(Oc3ccccc3C#N)n2)c1 | 5.47 |  | inactive
N#Cc1ccc(COn2c(-c3cccc(C#N)c3)nc(-c3ccccn3)c2C(=O)O)cc1 | 5.04 |  | inactive
N#Cc1ccc(COn2c(-c3cccc(C#N)c3)nc(-c3nccs3)c2C(=O)O)cc1 | 5.34 |  | inactive
N#Cc1ccc(-c2ncc(C(=O)O)c(Oc3ccccc3C#N)n2)cc1 | 5.25 | 96.2 | 
N#Cc1cccc(-c2nc(C(F)F)c(C(=O)O)n2OCc2ccccn2)c1 | < 5.00 | 75.9 | 
N#Cc1ccc(COn2c(-c3cccc(C#N)c3)nc(-c3cscn3)c2C(=O)O)cc1 | < 5.00 |  | inactive
N#Cc1ccc(COc2nc(-c3ccc(C#N)cc3)ncc2C(=O)O)cc1 | < 5.00 | 88.2 | 
N#Cc1cccc(-c2nc(C(F)F)c(C(=O)O)n2OCc2csc(N3CCOCC3)n2)c1 | 5.33 |  | inactive
N#Cc1ccc(Nc2nc(-c3cccc(C#N)c3)ncc2C(=O)O)cc1 | < 5.00 | 84.9 | 
N#Cc1ccc(-c2ncc(C(=O)O)c(OCc3ccccc3C#N)n2)cc1 | < 5.00 |  | inactive
N#Cc1ccc(COn2c(-c3cccc(C#N)c3)nc(-c3ccncc3)c2C(=O)O)cc1 | < 5.00 |  | inactive
N#Cc1ccc(Oc2nc(-c3cccc(C#N)c3)ncc2C(=O)O)cc1 | 5.32 |  | inactive
N#Cc1ccc(-c2ncc(C(=O)O)c(Oc3cccc(C#N)c3)n2)cc1 | 5.36 | 98.9 | 
N#Cc1ccc(COn2c(-c3cccc(C#N)c3)nc(-c3ccco3)c2C(=O)O)cc1 | < 5.00 | 77.1 | 
N#Cc1ccc(-c2ncc(C(=O)O)c(Nc3cccc(C#N)c3)n2)cc1 | < 5.00 | 97.2 | 
N#Cc1cccc(-c2nc(C(F)F)c(C(=O)O)n2OCc2cccnc2)c1 | < 5.00 |  | inactive
N#Cc1ccc(COn2c(-c3cccc(C#N)c3)nc(-c3cccs3)c2C(=O)O)cc1 | < 5.00 |  | inactive

SMILES | pIC50 (Plasma) | viability at 10 µM (HT-22) [%] | Activity (HT-22)
[2H]C([2H])([2H])c1nc(-c2cccc(C#N)c2)n(OCc2ccc(C#N)cc2)c1C(=O)O | 5.46 | 73.1 | 
CN(C)c1nc(COn2c(-c3cccc(C#N)c3)nc(C(F)F)c2C(=O)O)cs1 | 5.43 | 62.4 | 
N#Cc1cccc(-c2ncc(C(=O)O)c(OCc3ccccc3C#N)n2)c1 | < 5.00 | 95.8 | 
N#Cc1cccc(-c2nc(C(F)F)c(C(=O)O)n2OCc2ccncc2)c1 | 5.27 |  | inactive
N#Cc1cccc(Nc2nc(-c3cccc(C#N)c3)ncc2C(=O)O)c1 | 5.11 |  | inactive
N#Cc1ccc(Oc2nc(-c3ccc(C#N)cc3)ncc2C(=O)O)cc1 | 5.34 | 91.3 | 
N#Cc1ccc(COn2c(-c3cccc(C#N)c3)nc(-c3ccoc3)c2C(=O)O)cc1 | 5.12 |  | inactive
Cc1nc(-c2cccc(C#N)c2)nc(OCc2ccc(C#N)cc2)c1C(=O)O | 5.30 |  | inactive
N#Cc1cccc(-c2ncc(C(=O)O)c(Nc3cccnc3)n2)c1 | < 5.00 |  | inactive
N#Cc1cccc(-c2ncc(C(=O)O)c(Nc3ccccc3C#N)n2)c1 | < 5.00 | 81 | 
CS(=O)(=O)Nc1cccc(Oc2nc(-c3cccc(C#N)c3)ncc2C(=O)O)c1 | 5.09 | 79.1 | 
N#Cc1ccc(-c2ncc(C(=O)O)c(Nc3ccccc3C#N)n2)cc1 | 5.01 | 97.8 | 
N#Cc1cccc(-c2nc(C(F)F)c(C(=O)O)n2OCc2cncs2)c1 | 5.42 | 64.9 | 
N#Cc1ccc(COn2c(-c3cccc(C#N)c3)nc(C3CC(F)(F)C3)c2C(=O)O)cc1 | 5.51 |  | inactive
CCc1nc(-c2cccc(C#N)c2)n(OCc2ccc(C#N)cc2)c1C(=O)O | 5.39 | 70.6 | 
N#Cc1ccc(COn2c(-c3cccc(C#N)c3)nc(-c3cnccn3)c2C(=O)O)cc1 | 5.39 |  | inactive
CC(=O)Nc1cccc(Oc2nc(-c3cccc(C#N)c3)ncc2C(=O)O)c1 | 5.10 | 88.2 | 
N#Cc1ccc(COn2c(-c3cccc(C#N)c3)nc(-c3ccccc3)c2C(=O)O)cc1 | 5.48 |  | inactive
N#Cc1cccc(-c2ncc(C(=O)O)c(Oc3cccnc3)n2)c1 | < 5.00 | 87.6 | 

Continued, in another order:

pIC50 (Plasma) | SMILES | viability at 10 µM (HT-22) [%] | Activity (HT-22)
5.70 | N#Cc1cccc(-c2nc(C(F)F)c(C(=O)O)n2OCc2cscn2)c1 | 86.8 | 
5.57 | CCN(CC)c1nc(COn2c(-c3cccc(C#N)c3)nc(C(F)F)c2C(=O)O)cs1 |  | inactive
5.86 | N#Cc1ccc(COn2c(-c3cccc(C#N)c3)nc(-c3ccsc3)c2C(=O)O)cc1 |  | inactive
5.52 | N#Cc1ccc(-c2ncc(C(=O)O)c(OCc3cccc(C#N)c3)n2)cc1 | 81.1 | 
5.52 | CC1(c2nc(-c3cccc(C#N)c3)n(OCc3ccc(C#N)cc3)c2C(=O)O)CCC1 | 72.4 | 
5.57 | N#Cc1cccc(COc2nc(-c3cccc(C#N)c3)ncc2C(=O)O)c1 | 80.7 | 
6.01 | N#Cc1ccc(COn2c(-c3cccc(C#N)c3)nc(C(F)F)c2C(=O)O)cc1 | 77.4 | 
5.66 | N#Cc1cccc(-c2nc(C(F)F)c(C(=O)O)n2OCc2cnco2)c1 |  | inactive
5.60 | N#Cc1ccc(COn2c(-c3cccc(C#N)c3)nc(C3CCCC3)c2C(=O)O)cc1 |  | inactive
5.79 | COCc1nc(-c2cccc(C#N)c2)n(OCc2ccc(C#N)cc2)c1C(=O)O |  | inactive
5.68 | CC(C)Cc1nc(-c2cccc(C#N)c2)n(OCc2ccc(C#N)cc2)c1C(=O)O | 76.1 | 
5.58 | N#Cc1ccc(COn2c(-c3cccc(C#N)c3)nc(-c3cncs3)c2C(=O)O)cc1 |  | inactive
5.54 | N#Cc1ccc(COn2c(-c3cccc(C#N)c3)nc(C3CC3(F)F)c2C(=O)O)cc1 (centres undefined) | 60.1 | 
5.55 | N#Cc1cccc(-c2nc(C(F)F)c(C(=O)O)n2OCc2nccs2)c1 |  | inactive
5.74 | N#Cc1ccc(COn2c(-c3cccc(C#N)c3)nc(C(F)(F)F)c2C(=O)O)cc1 | 75.6 | 
5.77 | N#Cc1cccc(-c2nc(C(F)F)c(C(=O)O)n2OCc2cocn2)c1 |  | inactive
5.62 | CC1(c2nc(-c3cccc(C#N)c3)n(OCc3ccc(C#N)cc3)c2C(=O)O)CC1 | 88.1 | 
5.79 | CC(C)c1nc(-c2cccc(C#N)c2)n(OCc2ccc(C#N)cc2)c1C(=O)O |  | inactive
5.87 | Cc1sc(N2CCOCC2)nc1COn1c(-c2cccc(C#N)c2)nc(C(F)F)c1C(=O)O | 64.6 | 
5.60 | N#Cc1ccc(COn2c(-c3cccc(C#N)c3)nc(C3CC3)c2C(=O)O)cc1 |  | inactive
5.51 | N#Cc1ccc(COc2nc(-c3cccc(C#N)c3)ncc2C(=O)O)cc1 |  | inactive
5.84 | N#Cc1ccc(COn2c(-c3cccc(C#N)c3)nc(C3CCC3)c2C(=O)O)cc1 |  | inactive
5.58 | N#Cc1ccc(COn2c(-c3cccc(C#N)c3)nc(C3CCCCC3)c2C(=O)O)cc1 |  | inactive
